Experimental data reported in patent US20250122190A1, “HALOGEN-SUBSTITUTED PYRIDAZINONE COMPOUND AND APPLICATION THEREOF” (MEDSHINE DISCOVERY INC., priority 2021, published 2025).
pIC50: −log10 of the molar value. Like-named read-outs stand apart in the source and are kept apart here.

Assays:
[1] = In vivo PK studies, intravenous injection; settings: rat, plasma, male SD rats; for Vd: read-out: Vdss
Experimental: Male SD rats were used as test animals. After intravenous injection, the blood drug concentration of the compounds was determined and the pharmacokinetic behavior was evaluated.
Three healthy adult male SD rats were selected. The test compounds were mixed with an appropriate amount of a vehicle of the intravenous injection group and prepared into a 0.5 or 1 mg/mL clear solution, which was filtered with a […] microporous filter membrane for later use. After intravenous administration to the rats at 0.5 or 1 mg/kg, whole blood was collected at 0.083, 0.25, 0.5, 1, 2, 4, 8, 24 hours after administration and placed in EDTA-K2 anticoagulant tubes, and the mixture was vortexed thoroughly and centrifuged at 3200 g, 4° C. for 10 minutes to obtain the plasma. The LC-MS/MS method was used to determine the drug concentration, and the Phoenix WinNonlin 6.3 pharmacokinetic software was used to calculate the relevant pharmacokinetic parameters by the non-compartmental model linear logarithmic trapezoidal method. • Vehicle 1:10% DMSO/10% Kolliphor® HS 15/80% (20% sulfobutyl-β-cyclodextrin); • Vehicle 2:10% DMSO+20% polyoxyethylenated castor oil+70% water; • Vehicle 3:5% DMSO+10% Kolliphor® HS 15+85% physiological saline; • Vehicle 4:10% DMSO+60% polyethylene glycol 400+30% (10% aqueous hydroxypropyl-β-cyclodextrin solution).

hTRPC5-T478C = target: T1, hTRPC5-T478C (Homo sapiens, UniProt Q9UL62); test: hTRPC5-T478C FLIPR calcium flux IC50 assay; type: cell-based; settings: hTRPC5-T478C-HEK cells, Englerin A as channel agonist
T1 sequence (Q9UL62 1-973): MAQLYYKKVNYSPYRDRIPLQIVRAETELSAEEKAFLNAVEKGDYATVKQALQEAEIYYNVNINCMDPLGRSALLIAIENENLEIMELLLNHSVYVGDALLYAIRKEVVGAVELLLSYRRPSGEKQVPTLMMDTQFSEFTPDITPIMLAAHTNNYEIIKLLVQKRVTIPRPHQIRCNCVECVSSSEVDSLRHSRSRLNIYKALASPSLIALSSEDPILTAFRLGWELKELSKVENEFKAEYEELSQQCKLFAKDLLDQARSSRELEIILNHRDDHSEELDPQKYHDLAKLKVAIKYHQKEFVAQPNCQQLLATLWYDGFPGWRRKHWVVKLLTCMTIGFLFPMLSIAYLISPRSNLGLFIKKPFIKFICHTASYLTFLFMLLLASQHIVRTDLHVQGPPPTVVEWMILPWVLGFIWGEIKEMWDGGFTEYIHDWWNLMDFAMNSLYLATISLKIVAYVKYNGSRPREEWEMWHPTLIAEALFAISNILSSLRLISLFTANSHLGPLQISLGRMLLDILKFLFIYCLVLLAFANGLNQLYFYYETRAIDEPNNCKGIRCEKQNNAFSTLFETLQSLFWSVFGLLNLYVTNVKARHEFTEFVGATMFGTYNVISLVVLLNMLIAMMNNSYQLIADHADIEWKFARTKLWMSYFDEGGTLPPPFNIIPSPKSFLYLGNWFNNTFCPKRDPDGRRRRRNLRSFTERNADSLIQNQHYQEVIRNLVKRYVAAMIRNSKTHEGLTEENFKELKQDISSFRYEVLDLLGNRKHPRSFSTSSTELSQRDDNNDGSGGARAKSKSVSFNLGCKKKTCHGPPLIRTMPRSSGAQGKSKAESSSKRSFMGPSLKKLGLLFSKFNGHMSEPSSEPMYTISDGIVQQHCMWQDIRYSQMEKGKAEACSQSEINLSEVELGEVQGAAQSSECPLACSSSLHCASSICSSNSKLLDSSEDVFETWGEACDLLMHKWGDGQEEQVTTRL
Experimental: Cell culture: hTRPC5-T478C-HEK cells were cultured in a humid environment in 5% CO2 at 37° C.
Cell culture medium ingredients: • DMEM, Supplier: Gibco, Catalog No. 11965-092; • FBS, Supplier: Gibco, Catalog No. 10099-141C, Concentration: 10%; • Pen/Strep, Supplier: Invitrogen, Catalog No. 15140-122, Concentration: 1%; • Zeocin, Supplier: Invitrogen, Catalog No. R25005, Concentration: 200 μg/mL; • Blasticidin S, Supplier: Invitrogen, Catalog No. R21001, Concentration: 5 μg/mL.
In general, the TRPC5-T478C cell line was passaged three times weekly. The dilution factor for each passage was 1:3. Once the cells reached about 80% confluence in the T-75 flask, the cell line was digested with trypsin for about 1 minute and the cell suspension was removed from the flask with a pipette. Depending on the dilution ratio, the removed cell suspension would be transferred to another T-75 flask containing cell culture medium. Note that in order to maintain the logarithmic growth of the cells, the confluence of the cells should be maintained at the subconfluent stage and the cells should be passaged once every 2 to 3 days depending on the proliferation rate of the cell line.
(1) Preparation of cell plate: the cells were separated according to the above-mentioned passaging and the cell density and viability were determined using a cell counter. The volume of the cell suspension was adjusted with a cell culture medium. After the density reached to the plating density, 1 μg/mL tetracycline was added to induce hTRPC5-T478C channel expression. The induced hTRPC5-T478C cells were then seeded onto poly-D-lysine (PDL)-coated 384-well plates at a density of 20000 cells/well (30 μL/well). Then the cells were cultured overnight in a cell culture incubator.
(2) Preparation of compound plate: the compounds were generally diluted with DMSO, prepared into a mother liquor and stored in a −20° C. refrigerator. A compound plating program was set on the ECHO processor, and the compounds were plated with ECHO according to the concentration gradient that was already set. In general, 9 concentrations were included with the highest concentration at 10 μM, 3-fold dilution, and 2 replicate wells. Englerin A was used as the channel agonist.
(3) On-machine testing: the cell plates and compound plates were prepared according to the above-mentioned methods. After the cell confluence of the cell plate reached 80%-90%, the cells were removed from the incubator and the testing started. Ca5 dye (Molecular Devices #R8185) was formulated with test buffer. After the cell plate culture medium was removed with Bravo, 25 μL of Ca5 dye was added to each well, and the plate was incubated for 1 hour. After 1 hour, the cell plate and compound plate were placed in FLIPR^TETRA (Molecular Devices, USA) for FLIPR detection.
Data analysis was performed using Excel 2013 (Microsoft, USA) software and GraphPad Prism 6.01 software. The maximum signal was generated by FLIPR software. Data analysis was performed using Excel (2013) and Prism 6.01. Data quality and data stability were controlled using S/B>2.50 and Z factor>0.50. The calculation formula was as follows: S/B=Avg100%/Avg0%; Z factor=1−(3*SD100%+3*SDO %)/|Avg100%-Avg0%.

Row | SMILES | AUC(0-t) ([1]; 1 mg/kg, 1 mpk) [µM·h] | clearance ([1]; 1 mg/kg, 1 mpk) [mL/min/kg] | half-life ([1]; 1 mg/kg, 1 mpk) [h] | Vd ([1]; 1 mg/kg, 1 mpk) [L/kg] | pIC50 (hTRPC5-T478C) | AUC(0-t) ([1]; 0.5 mg/kg, 0.5 mpk) [µM·h] | clearance ([1]; 0.5 mg/kg, 0.5 mpk) [mL/min/kg] | half-life ([1]; 0.5 mg/kg, 0.5 mpk) [h] | Vd ([1]; 0.5 mg/kg, 0.5 mpk) [L/kg]
1 | O=c1[nH]ncc(N2CCc3c(ncnc3Sc3ccc(F)cc3C(F)(F)F)C2)c1Cl [Compound WX002] | 1.97 | 18.2 | 1.83 | 2.28 | 7.57 |  |  |  | 
2 | O=c1[nH]ncc(N2CCc3c(ncnc3Oc3ccc(F)cc3Br)C2)c1Cl [Compound WX004] | 8.26 | 4.6 | 2.02 | 0.77 | 7.40 |  |  |  | 
3 | O=c1[nH]ncc(N2CCc3c(ncnc3Oc3ccc(F)cc3C(F)(F)F)C2)c1Br [Compound WX009] |  |  |  |  | 7.43 | 2.38 | 6.52 | 2.59 | 1.37
4 | CC(F)(F)c1cc(F)ccc1Oc1ncnc2c1CCN(c1cn[nH]c(=O)c1Cl)C2 [Compound WX010] | 4.75 | 7.81 | 1.73 | 1.13 | 7.15 |  |  |  | 
5 | COCc1nc2c(c(Oc3ccc(F)cc3C(F)(F)F)n1)CCN(c1cn[nH]c(=O)c1Cl)C2 [Compound WX011] | 4.05 | 8.29 | 1.46 | 1.06 | 7.10 |  |  |  | 

Second part, the molecule after the results:

Row | AUC(0-t) ([1]; 1 mg/kg, 1 mpk) [µM·h] | clearance ([1]; 1 mg/kg, 1 mpk) [mL/min/kg] | half-life ([1]; 1 mg/kg, 1 mpk) [h] | Vd ([1]; 1 mg/kg, 1 mpk) [L/kg] | pIC50 (hTRPC5-T478C) | AUC(0-t) ([1]; 0.5 mg/kg, 0.5 mpk) [µM·h] | clearance ([1]; 0.5 mg/kg, 0.5 mpk) [mL/min/kg] | half-life ([1]; 0.5 mg/kg, 0.5 mpk) [h] | Vd ([1]; 0.5 mg/kg, 0.5 mpk) [L/kg] | SMILES
6 | 3.33 | 10.1 | 2.31 | 1.62 | 7.62 |  |  |  |  | O=c1[nH]ncc(N2CCc3c(nc(CO)nc3Sc3ccc(F)cc3C(F)(F)F)C2)c1Cl [Compound WX012]
7 | 9.13 | 3.94 | 2.65 | 0.88 | 7.25 |  |  |  |  | Nc1nc2c(c(Sc3ccc(F)cc3C(F)(F)F)n1)CCN(c1cn[nH]c(=O)c1Cl)C2 [Compound WX013]
